From the NIST ThermoML archive (doi:10.1016/j.jct.2007.05.001) come the findings set out here.

Numbers after ± are expanded uncertainties.

A short description of the data set: refractive index (Na D-line) (dimensionless). The note with it: 293.1 K; 101.33 kPa; Liquid; Standard Abbe refractometry.

As to `Cc1cccc(C)c1` [1,3-dimethylbenzene], the refractive index turned out to be 1.4943 ± 0.0008.

Consider `O=CN1CCOCC1` [N-formylmorpholine], for which the refractive index is 1.484 ± 0.0008.

The refractive index is the speed of light in vacuum divided by its phase velocity in the sample.
